From patent US20220079944A1, “2H-INDAZOLE DERIVATIVES AS THERAPEUTIC AGENTS FOR BRAIN CANCERS AND BRAIN METASTASES” (BETA PHARMA, INC., priority 2019, published 2022)
Like-named read-outs stand apart in the source and are kept apart here.

Legend:
[1] = test system: orthotopic U87MG-luc human glioblastoma; test: Efficacy in combination with temozolomide against orthotopic U87MG-luc human glioblastoma in mice (bioluminescence); format: in vivo; details: glioblastoma model, combination with TMZ
Description: An efficacy and comparison study between Compound 1 and abemaciclib, in combination with temozolomide (TMZ), against orthotopic U87MG-luc human glioblastoma in mice was conducted. In each study, TMZ was dosed PO at 6 mg/kg, QD×5, and either Compound 1 or abemaciclib was dosed PO at 100 mg/kg. Tumor growth was observed by bioluminescence. […] From a broad perspective, the significant differentiation between Compound 1 and abemaciclib in a brain disease model can be traced to their distinct molecular structures. Female Envigo Nude Mice (Hsd:Athymic Nude-Fox1^nu) were used in this study. They were 6-7 weeks old on Day 1 of the experiment. The animals were fed irradiated Harlan 2918.15 Rodent Diet and water ad libitum. Animals were housed in INNOVIVE® disposable ventilated caging with corn cob bedding inside BIOBUBBLE® Clean Rooms that provide H.E.P.A filtered air into the bubble environment at 100 complete air changes per hour. All treatments, body weight determinations, and tumor measurements were carried out in the bubble environment. […] An aliquot of the homogeneous cell suspension was diluted in a trypan blue solution and counted using a Luna automated cell counter. […] Following implantation, an aliquot of the remaining cells was diluted with a trypan blue solution and counted to determine the post-implantation cell viability. […]

P-gp = target: T1, P-gp (Homo sapiens, UniProt P08183); test: P-gp substrate potential using MDR1-MDCK monolayers (bidirectional permeability +/- valspodar); format: in vitro ADME
T1 construct: expressed in transfected cells; host or cells: MDR1-MDCK (MDCK cells expressing MDR1)
Description: The objective of this study was to determine the P-gp substrate potential of one test article using MDR1-MDCK monolayers.
Each determination was performed in duplicate. […] Analytical conditions are outlined in Appendix 1.
Papp=(dCr/dt)×Vr/(A×CA) (1)
Percent Recovery=100×((Vr×Cr^final)+(Vd×Cd^final))/(Vd×CN) (2) • where • dC/dt is the slope of the cumulative concentration in the receiver compartment versus time in μM s^−1; • Vr is the volume of the receiver compartment in cm^3; • Vd is the volume of the donor compartment in cm^3; • A is the area of the insert (1.13 cm^2 for 12-well); • CA is the average of the nominal dosing concentration and the measured 120 minute donor concentration in μM; • CN is the nominal concentration of the dosing solution in μM; • Cr^final is the cumulative receiver concentration in μM at the end of the incubation period; • Cd^final is the concentration of the donor in μM at the end of the incubation period.
Efflux ratio (ER) is defined as Papp (B-to-A)/Papp (A-to-B).

[2] = Brain concentration and brain/plasma ratio in mouse after 10 mg/kg p.o.; format: in vivo; details: for concentration at 2 h / concentration at 4 h / concentration at 8 h / concentration at 24 h: po, 10 mg/kg
[3] = brain, PO 10 mg/kg, individual animal R1, read-out: Brain Concentration, R1 + 3n
[4] = brain, PO 10 mg/kg, individual animal R2, read-out: Brain Concentration, R2 + 3n
[5] = brain, PO 10 mg/kg, individual animal R3, read-out: Brain Concentration, R3 + 3n
[6] = brain, PO 10 mg/kg, mean, read-out: Brain Concentration, Mean PO
[7] = plasma, PO 10 mg/kg, individual animal R1, read-out: Plasma Concentration, R1 + 3n
[8] = plasma, PO 10 mg/kg, individual animal R2, read-out: Plasma Concentration, R2 + 3n
[9] = plasma, PO 10 mg/kg, individual animal R3, read-out: Plasma Concentration, R3 + 3n
[10] = plasma, PO 10 mg/kg, mean, read-out: Plasma Concentration, Mean PO

T1 sequence (P08183 whole entry): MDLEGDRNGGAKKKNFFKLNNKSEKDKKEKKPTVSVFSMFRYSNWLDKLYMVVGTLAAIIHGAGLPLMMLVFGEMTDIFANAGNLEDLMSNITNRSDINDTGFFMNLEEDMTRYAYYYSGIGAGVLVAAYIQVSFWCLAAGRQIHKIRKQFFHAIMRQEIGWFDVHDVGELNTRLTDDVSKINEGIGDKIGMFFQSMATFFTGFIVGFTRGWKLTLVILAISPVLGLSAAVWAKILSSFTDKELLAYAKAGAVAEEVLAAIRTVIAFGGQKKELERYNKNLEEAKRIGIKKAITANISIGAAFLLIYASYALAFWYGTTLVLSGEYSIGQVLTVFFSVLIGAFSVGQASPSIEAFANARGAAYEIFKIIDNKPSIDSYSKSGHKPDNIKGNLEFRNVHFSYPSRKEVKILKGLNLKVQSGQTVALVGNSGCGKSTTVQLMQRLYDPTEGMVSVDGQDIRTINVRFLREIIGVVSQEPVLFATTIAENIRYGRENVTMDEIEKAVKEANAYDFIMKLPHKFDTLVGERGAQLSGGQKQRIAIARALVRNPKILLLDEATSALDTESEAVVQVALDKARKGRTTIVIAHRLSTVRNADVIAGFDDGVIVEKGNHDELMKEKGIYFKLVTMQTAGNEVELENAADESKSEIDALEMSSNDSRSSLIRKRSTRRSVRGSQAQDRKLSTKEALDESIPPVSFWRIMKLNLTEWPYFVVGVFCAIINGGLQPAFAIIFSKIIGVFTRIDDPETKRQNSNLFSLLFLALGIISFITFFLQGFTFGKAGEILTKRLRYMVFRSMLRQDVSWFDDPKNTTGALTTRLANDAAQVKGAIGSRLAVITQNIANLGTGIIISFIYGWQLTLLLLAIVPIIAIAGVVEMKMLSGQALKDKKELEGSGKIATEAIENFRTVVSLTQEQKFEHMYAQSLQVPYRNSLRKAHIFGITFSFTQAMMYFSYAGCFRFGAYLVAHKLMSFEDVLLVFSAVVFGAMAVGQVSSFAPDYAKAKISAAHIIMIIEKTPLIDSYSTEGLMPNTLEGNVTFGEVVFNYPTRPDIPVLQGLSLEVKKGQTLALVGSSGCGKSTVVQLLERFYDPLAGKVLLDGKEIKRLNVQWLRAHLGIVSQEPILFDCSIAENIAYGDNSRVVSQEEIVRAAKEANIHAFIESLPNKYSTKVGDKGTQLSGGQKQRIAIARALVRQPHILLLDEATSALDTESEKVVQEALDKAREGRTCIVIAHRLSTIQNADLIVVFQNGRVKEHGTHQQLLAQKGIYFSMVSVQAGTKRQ

## CCN1CCN(Cc2ccc(Nc3ncc(F)c(-c4ccc5nn(C)c(C(C)C)c5c4)n3)nc2)CC1 [Compound 1, N-(5-((4-ethylpiperazin-1-yl)methyl)pyridin-2-yl)-5-fluoro-4-(3-isopropyl-2-methyl-2H-indazol-5-yl)pyrimidin-2-amine]
[1]
  In vivo efficacy relative to abemaciclib: superior in vivo efficacy
P-gp; MDR1-MDCK monolayers, conclusion in words
  P-gp substrate: not a substrate for P-gp
P-gp; MDR1-MDCK, 5 μM, +/− 1 μM valspodar
  P-gp Substrate Classification: Negative (ER≥2.0 without valspodar, and reduced by <50% with valspodar: Negative)
P-gp; dog, MDCK-MDR1, pH 7.4, MDR1-MDCK, 5 μM, A-to-B, without valspodar
  recovery at 120 min, 5 μM: 22%
P-gp; dog, MDCK-MDR1, pH 7.4, MDR1-MDCK, 5 μM, A-to-B, without valspodar, average, read-out: Papp AVG
  Papp A→B at 120 min, 5 μM: 5.34 ×10⁻⁶ cm/s
P-gp; dog, MDCK-MDR1, pH 7.4, MDR1-MDCK, 5 μM, A-to-B, without valspodar, replicate R1, read-out: Papp R1
  Papp A→B at 120 min, 5 μM: 5.25 ×10⁻⁶ cm/s
P-gp; dog, MDCK-MDR1, pH 7.4, MDR1-MDCK, 5 μM, A-to-B, without valspodar, replicate R2, read-out: Papp R2
  Papp A→B at 120 min, 5 μM: 5.43 ×10⁻⁶ cm/s
P-gp; dog, MDCK-MDR1, pH 7.4, MDR1-MDCK, 5 μM, B-to-A, without valspodar
  recovery at 120 min, 5 μM: 51%
P-gp; dog, MDCK-MDR1, pH 7.4, MDR1-MDCK, 5 μM, B-to-A, without valspodar, average, read-out: Papp AVG
  Papp B→A at 120 min, 5 μM: 7.77 ×10⁻⁶ cm/s
P-gp; dog, MDCK-MDR1, pH 7.4, MDR1-MDCK, 5 μM, B-to-A, without valspodar, replicate R1, read-out: Papp R1
  Papp B→A at 120 min, 5 μM: 7.14 ×10⁻⁶ cm/s
P-gp; dog, MDCK-MDR1, pH 7.4, MDR1-MDCK, 5 μM, B-to-A, without valspodar, replicate R2, read-out: Papp R2
  Papp B→A at 120 min, 5 μM: 8.4 ×10⁻⁶ cm/s
P-gp; dog, MDCK-MDR1, pH 7.4, with valspodar 1 μM, MDR1-MDCK, 5 μM, A-to-B, + 1 μM Valspodar
  recovery at 120 min, 5 μM: 19%
P-gp; dog, MDCK-MDR1, pH 7.4, with valspodar 1 μM, MDR1-MDCK, 5 μM, B-to-A, + 1 μM Valspodar
  recovery at 120 min, 5 μM: 63%
P-gp; dog, pH 7.4, MDR1-MDCK, Papp (B-to-A)/Papp (A-to-B), without valspodar
  efflux ratio at 120 min, 5 μM: 1.5
[2]; 10 mg/kg p.o., higher than abemaciclib
  Brain concentration relative to that of abemaciclib: approximately 3 fold
[2]; PO 10 mg/kg, brain AUC0-last / plasma AUC0-last, read-out: AUC0-last Ratio, brain/plasma (B/P) ratio
  Kp: 1.43
[2]; PO 10 mg/kg, brain, from mean concentrations
  Brain AUC0-last: 11966 ng·h/g
[2]; PO 10 mg/kg, plasma, from mean concentrations, read-out: Plasma AUC0-last
  AUC(0-t): 8380 ng·h/mL
[2]; [3]
  concentration at 2 h: 954 ng/g
  concentration at 4 h: 1190 ng/g
  concentration at 8 h: 1150 ng/g
  concentration at 24 h: 9.06 ng/g
[2]; [4]
  concentration at 2 h: 630 ng/g
  concentration at 4 h: 1060 ng/g
  concentration at 8 h: 1380 ng/g
  concentration at 24 h: 8.64 ng/g
[2]; [5]
  concentration at 2 h: 1100 ng/g
  concentration at 4 h: 1220 ng/g
  concentration at 8 h: 1220 ng/g
  concentration at 24 h: 15.8 ng/g
[2]; [6]
  concentration at 2 h: 894 ng/g
  concentration at 4 h: 1160 ng/g
  concentration at 8 h: 1250 ng/g
  concentration at 24 h: 11.2 ng/g
[2]; [7]
  concentration at 2 h: 833 ng/mL
  concentration at 4 h: 669 ng/mL
  concentration at 8 h: 868 ng/mL
  concentration at 24 h: 4.36 ng/mL
[2]; [8]
  concentration at 2 h: 500 ng/mL
  concentration at 4 h: 543 ng/mL
  concentration at 8 h: 1030 ng/mL
  concentration at 24 h: 5.3 ng/mL
[2]; [9]
  concentration at 2 h: 748 ng/mL
  concentration at 4 h: 1180 ng/mL
  concentration at 8 h: 722 ng/mL
  concentration at 24 h: 10.6 ng/mL
[2]; [10]
  concentration at 2 h: 694 ng/mL
  concentration at 4 h: 797 ng/mL
  concentration at 8 h: 873 ng/mL
  concentration at 24 h: 6.75 ng/mL
